{"source": "patent US8648066B2", "about": "(Exelixis, Inc., priority 2009, dated 2014)", "target": "mTOR/GbL/Raptor (mTORC1) (Homo sapiens, UniProt P42345)", "test": "mTOR/GbL/Raptor (mTORC1) ELISA assay", "assay_type": "biochemical", "conditions": "phosphorylation of 4E-BP1; 0.2 nM mTORC1, 10 μM ATP; read-out: IC50 in this assay (mTORC1 ELISA)", "summary_of_the_method": "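ELISA read-out: phospho-4E-BP1 captured on Ni-chelate plates and detected with anti-phospho antibody plus HRP-anti-IgG luminescence. The kinase step ran 120 min at ambient temperature with 0.2 nM human mTORC1, 10 µM ATP, 50 nM His-4E-BP1, 10 mM MnCl2, pH 7.2 HEPES.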", "data": [{"smiles": "Cc1nc(C)c(CC2CC2)c(N2CCOc3ccc(-c4cnc5nc(C6CC6)[nH]c5c4)cc3C2)n1", "note": "[Example 547, 7-(2-cyclopropyl-1H-imidazo[4,5-b]pyridin-6-yl)-4-[5-(cyclopropylmethyl)-2,6-dimethylpyrimidin-4-yl]-2,3,4,5-tetrahydro-1,4-benzoxazepine]", "values": [{"measurement": "IC50", "value": "10 to 50", "unit": "nM"}]}, {"smiles": "CC1(C)CCc2ncnc(N3CCOc4ccc(-c5cnc(N)c(S(=O)(=O)N6CCNCC6)c5)cc4C3)c2C1", "note": "[Example 514, 5-[4-(6,6-dimethyl-5,6,7,8-tetrahydroquinazolin-4-yl)-2,3,4,5-tetrahydro-1,4-benzoxazepin-7-yl]-3-(piperazin-1-ylsulfonyl)puridin-2-amine]", "values": [{"measurement": "IC50", "value": "≤ 10", "unit": "nM"}]}, {"smiles": "CC(N)CNS(=O)(=O)c1cc(-c2ccc3c(c2)CN(c2ncnc4c2CC(C)(C)CC4)CCO3)cnc1N", "note": "(centres unmarked) [Example 410, 2-amino-N-(2-aminopropyl)-5-[4-(6,6-dimethyl-5,6,7,8-tetrahydroquinazolin-4-yl)-2,3,4,5-tetrahydro-1,4-benzoxazepin-7-yl]pyridine-3-sulfonamide]", "values": [{"measurement": "IC50", "value": "50 to 250", "unit": "nM"}]}, {"smiles": "CCNc1nc2ccc(-c3ccc4c(c3)CN(c3ccnc5ccc(F)cc35)CCO4)cc2[nH]1", "note": "[Example 283, N-ethyl-6-[4-(6-fluoroquinolin-4-yl)-2,3,4,5-tetrahydro-1,4-benzoxazepin-7-yl]-1H-benzimidazol-2-amine]", "values": [{"measurement": "IC50", "value": "50 to 250", "unit": "nM"}]}, {"smiles": "Nc1nc2ncc(-c3ccc4c(c3)CN(c3ncnc5ccc(Cl)cc35)CCO4)cc2[nH]1", "note": "[Example 186, 6-[4-(6-chloroquinazolin-4-yl)-2,3,4,5-tetrahydro-1,4-benzoxazepin-7-yl]-1H-imidazo[4,5-b]pyridin-2-amine]", "values": [{"measurement": "IC50", "value": "10 to 50", "unit": "nM"}]}, {"smiles": "CCNc1nc(C)nc(N2CCOc3ccc(-c4cnc5nc(C)[nH]c5c4)cc3C2)c1C", "note": "[Example 637, N-ethyl-2,5-dimethyl-6-[7-(2-methyl-1H-imidazo[4,5-b]pyridin-6-yl)-2,3-dihydro-1,4-benzoxazepin-4(5H)-yl]pyrimidin-4-amine]", "values": [{"measurement": "IC50", "value": "250 to 1000", "unit": "nM"}]}, {"smiles": "Cc1nc2cc(-c3ccc4c(c3)CN(c3nc(CCN5CCCC5)nc5c3CC(C)(C)CC5)CCO4)cnc2[nH]1", "note": "[Example 497, 4-[6,6-dimethyl-2-(2-pyrrolidin-1-ylethyl)-5,6,7,8-tetrahydroquinazolin-4-yl]-7-(2-methyl-3H-imidazo[4,5-b]pyridin-6-yl)-2,3,4,5-tetrahydro-1,4-benzoxazepine]", "values": [{"measurement": "IC50", "value": "10 to 50", "unit": "nM"}]}, {"smiles": "COc1cc2ncnc(N3CCOc4ccc(-c5ccc6nc(C)[nH]c6c5)cc4C3)c2cc1Cl", "note": "[Example 38, 4-[6-chloro-7-(methyloxy)quinazolin-4-yl]-7-(2-methyl-1H-benzimidazol-6-yl)-2,3,4,5-tetrahydro-1,4-benzoxazepine]", "values": [{"measurement": "IC50", "value": "10 to 50", "unit": "nM"}]}, {"smiles": "CN(C)S(=O)(=O)c1cc(-c2ccc3c(c2)CN(c2ncnc4c2CC(C)(C)CC4)CCO3)cnc1N", "note": "[Example 380, 2-amino-5-[4-(6,6-dimethyl-5,6,7,8-tetrahydroquinazolin-4-yl)-2,3,4,5-tetrahydro-1,4-benzoxazepin-7-yl]-N,N-dimethylpyridine-3-sulfonamide]", "values": [{"measurement": "IC50", "value": "10 to 50", "unit": "nM"}]}, {"smiles": "Cc1nc2ncc(-c3ccc4c(c3)CN(c3nc(CN(C)C5CC5)nc5c3CC(C)(C)CC5)CCO4)cc2[nH]1", "note": "[Example 604, N-({6,6-dimethyl-4-[7-(2-methyl-1H-imidazo[4,5-b]pyridin-6-yl)-2,3-dihydro-1,4-benzoxazepin-4(5H)-yl]-5,6,7,8-tetrahydroquinazolin-2-yl}methyl)-N-methylcyclopropanamaine]", "values": [{"measurement": "IC50", "value": "10 to 50", "unit": "nM"}]}, {"smiles": "Cc1nc2ncc(-c3ccc4c(c3)CN(c3nc(CN5CCCCC5)nc5c3CC(C)(C)CC5)CCO4)cc2[nH]1", "note": "[Example 499, 4-[6,6-dimethyl-2-(piperidin-1-ylmethyl)-5,6,7,8-tetrahydroquinazolin-4-yl]-7-(2-methyl-1H-imidazo[4,5-b]pyridin-6-yl)-2,3,4,5-tetrahydro-1,4-benzoxazepine]", "values": [{"measurement": "IC50", "value": "50 to 250", "unit": "nM"}]}]}
